Reference: US5302602A, “Tricyclic thromboxane A2 antagonists” (Kyowa Hakko Kogyo Co., Ltd., priority 1987, dated 1994)
Like-named read-outs stand apart in the source and are kept apart here.

How the values were obtained:
[1] = system: guinea pig platelets (TXA2/prostaglandin H2 receptor); assay: Test on anti-platelet activity (TXA2 antagonizing test): inhibition of U-46619-induced platelet aggregation; assay type: cell-based; conditions: Cavia porcellus, 0.05 h; minimum concentration inhibiting U-46619 (0.5-1 μM)-induced platelet aggregation by 30% or more; guinea pig PRP; read-out: TXA2 Antagonizing Activity (MEC), minimum effective concentration
Method: Using guinea pig platelets influence of the compounds in accordance with the present invention on platelet aggregation induced by U-46619 (9,11-dideoxy-9α,11a-methanoepoxyprostaglandin F2 α; manufactured by Cayman Chemica Co., Ltd.) which is a TXA2 /prostaglandin H2 receptor stimulant was examined.
Male guinea pig (Hartley strain; body weight, 300 to 600 g) was anesthesized by intraperitoneal administration of sodium pentobarbital (30 mg/kg) and blood was collected from the descending aorta of the abdomen with a 1/10 volume of sodium citrate. By centrifugation (KC-70: manufactured by Kubota Co., Ltd.) at 800 rpm for 10 minutes, platelet rich plasma (PRP) was collected. Platelet aggregation induced by U-46619 (0.5-1 μM) was determined by photometry [Born, G.V.R. et al., Nature (London), 194, 927-929 (1962)]. A test compound was pretreated 3 minutes prior to aggregation induction and ability of inhibiting aggregation was measured. The minimum concentration for inhibiting platelet aggregation by 30% or more was defined as the minimum effective concentration (MEC) of the test compound.

[2] = system: homologous passive cutaneous anaphylaxis (PCA); assay: Antiallergic activity test: homologous passive cutaneous anaphylaxis (PCA) test for 48 hours using rats; assay type: in vivo, rat (Wistar strain, male); conditions: Rattus norvegicus, po, minimum dose with at least one of 3 rats showing PCA inhibition rate 50% or more, read-out: Antiallergic Activity (MED), minimum effective dose
Method: Antiallergic activity was examined in accordance with the passive cutaneous anaphylaxis (PCA) test using rats. As test animals, Wistar strain male rats weighing 180 to 220 g were used to collect antiserum and for the PCA test, Wistar strain male rats weighing 120 to 140 g were used.
Anti-EWA rat serum was prepared according to the method of Stotland and Share [Can. J. Physiol. Pharmacol., 52, 1114 (1974)]. That is, 1 mg of EWA was mixed with 20 mg of aluminum hydroxide gel and 0.5 ml of pertussis-diphtberia-tetanus mixed vaccine. The mixture was subcutaneously administered to the rat paw in 4 portions. Fourteen days after, blood was collected from the carotid artery and the serum was isolated and stored in a state frozen at -80° C. Titer of this antiserum to homologous PCA for 48 hours was 1:32.
Three rats were used per group. After the hair at the back was cut, 0.05 ml each of anti-EWA rat serum diluted to 8-fold with physiological saline was intracutaneously injected to each rat at the back in 2 places to passively sensitize the rat. A test compound or its solution (physiological saline solution or CMC solution) was orally administered 47 hours after and 0.5 ml/100 g of 1% Evans Blue physiological saline containing 2 mg of antigen EWA was then intravenously administered to the tail vein an hour after the administration. Thirty minutes later, the animal was bled to death. The skin was peeled off and a leaked dye amount at the blue dyed portion was measured according to the method of Katayama et al. [Microbiol. Immunol., 22, 89 (1978)]. That is, the blue dyed portion was cut off with scissors, put into a test tube charged with 1 ml of 1 N potassium hydroxide and incubated at 37° C. for 24 hours. After 9 ml of a mixture of 0.6 N phosphate:acetone (5:13) was added to the system, the mixture was shaken followed by centrifugation at 2500 rpm for 10 minutes. The absorbancy of the supernatant at 620 nm was measured and the leaked dye amount was quantitatively determined by comparison with a calibration curve previously prepared. A value of one rat was obtained from a mean value of the two portions and an inhibition rate-of each rat was calculated according to the following equation. [formula]
The case showing that the inhibition rate is 50% or more is judged to be positive in the PCA inhibition activity and the minimum dose in which at least one out of 3 rats was recognized to be positive was defined as the minimum effective dose (MED) of the test compound.

mice = assay: Acute toxicity test; assay type: in vivo; conditions: mortality observed for seven days
Method: Using three dd strain male mice weighing 20±1 g, a test compound was orally (po; 300 mg/kg) or intraperitoneally (ip; 100 mg/kg) administered. MLD (the minimum lethal dose) was determined by observing the mortality for seven days after administration.

histamine H1 receptor = biological target: T1, histamine H1 receptor (Cavia porcellus, UniProt P31389); assay: Binding study using 3H-pyrilamine (histamine H1 receptor binding); design: species or system guinea pig; conditions: read-out: (%) Inhibition (3H-pyrilamine binding)
T1 construct: from tissue; host or cells: guinea pig cerebellum membranes
T1 sequence (P31389 whole entry): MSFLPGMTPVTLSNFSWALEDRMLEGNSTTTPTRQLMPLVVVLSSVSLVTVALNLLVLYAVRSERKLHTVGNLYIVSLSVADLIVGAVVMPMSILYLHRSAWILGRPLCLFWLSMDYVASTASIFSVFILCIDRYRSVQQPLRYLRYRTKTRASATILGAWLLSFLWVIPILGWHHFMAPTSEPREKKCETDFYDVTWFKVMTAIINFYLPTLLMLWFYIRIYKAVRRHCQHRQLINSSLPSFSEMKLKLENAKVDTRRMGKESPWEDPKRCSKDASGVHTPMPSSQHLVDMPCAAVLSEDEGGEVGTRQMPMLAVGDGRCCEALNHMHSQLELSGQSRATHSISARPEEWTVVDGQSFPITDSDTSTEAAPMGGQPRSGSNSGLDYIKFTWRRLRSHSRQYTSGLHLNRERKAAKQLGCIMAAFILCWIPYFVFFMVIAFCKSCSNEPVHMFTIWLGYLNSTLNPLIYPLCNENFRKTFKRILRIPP
Method: Receptor binding was determined by the method of chang et al. [J. Neurochem., 32, 1953 (1979)].
The cerebellum of guinea pig was suspended in a 40-fold amount (V/W) of chilled 50 mM phosphate buffer (pH 7.5) with Polytron Homogenizer (Kinematica Co., Ltd.). The suspension was centrifuged (35,500×g, 10 minutes). The resulting precipitates were resuspended in an equal amount of fresh buffer followed by centrifugation. A 100-fold amount (V/W) of chilled buffer was added to the final precipitates.
To 1 ml of the membrane suspension adjusted as described above were added 50 μl of tritium-labeled pyrilamine (^3 H-pyrilamine; NEN Co., Ltd.) and 50 μl of a test compound. The mixture was allowed to stand at 25° C. for 30 minutes, 4 ml of chilled buffer was added thereto. The mixture was rapidly filtered through a glass fiber filter (GF/C; Whatman). The filter paper was further washed three times with 5 ml of buffer. Hereafter procedures were performed in a manner similar to the TXA2 receptor binding test to determine radioactivity.
An inhibitory activity of the test compound against H1 receptor was calculated by the following equation. [formula]
Amount of the total binding is an amount of ^3 H-pyrilamine-bound radioactivity in the absence of a test compound.
The amount of non-specific binding is an amount of ^3 H-pyrilamine-bound radioactivity in the presence of 3 μM Astemizole (manufactured by Janesen Pharmaceutics).
The amount bound in the presence of a test compound is an amount of ^3 H-pyrilamine-bound radioactivity in the presence of a test compound in various concentrations.

TXA2 receptor = biological target: T2, TXA2 receptor (Cavia porcellus, UniProt A0A286Y4I8); assay: Binding study using 3H-U46619 (TXA2 receptor binding activities test); design: species or system guinea pig; conditions: for inhibition at 1 µM: 20 min, read-out: % Inhibition (3H-U46619 binding); for inhibitory activity (TXA2 receptor binding), in words: statement in words on Table 4
T2 construct: To a washed platelet suspension (1×10^8 platelets) of guinea pig; endogenous in cells; host or cells: washed guinea pig platelets
T2 sequence (A0A286Y4I8 1-347): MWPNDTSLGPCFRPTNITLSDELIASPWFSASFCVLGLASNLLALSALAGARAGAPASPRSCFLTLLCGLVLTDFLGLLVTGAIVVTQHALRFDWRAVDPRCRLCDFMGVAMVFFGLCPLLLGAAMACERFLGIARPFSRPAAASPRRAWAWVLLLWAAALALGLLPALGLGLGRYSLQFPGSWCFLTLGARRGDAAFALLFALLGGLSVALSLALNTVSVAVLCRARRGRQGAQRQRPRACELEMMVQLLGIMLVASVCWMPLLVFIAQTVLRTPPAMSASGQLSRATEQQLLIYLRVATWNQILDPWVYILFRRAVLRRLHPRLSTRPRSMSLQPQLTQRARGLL
Method: Receptor binding was determined by a modified method of Kattelman et al. (Thrombosis Research, 41, 471 (1986)].
To a washed platelet suspension (1×10^8 platelets) of guinea pig were added 12 nM of tritium-labeled U46619 (^3 H-U46619; NEN Co., Ltd.) and a test compound (final concentration: 1 μM) solution. After keeping at 37° C. for 20 minutes, the mixture was rapidly filtered through a glass fiber filter paper (GF/C; Whatman). Immediately, the filter paper was washed 5 times with 3 ml of ice-cold 50 mM Tris-hydroxymethylaminomethane buffer (containing 100 mM sodium chloride). The glass fiber filter was transferred to a vial and a scintillator (Ex-H; manufactured by Wako Pure Chemical Industries Co., Ltd.) was added thereto. The radioactivity was determined with a liquid scintillation counter.
It is already known that ^3 H-U46619 is capable of binding with TXA2 receptor (see the publication supra). An inhibitory activity of the test compound against this binding means an ability of binding with the TXA2 receptor. It is also known that a good relationship exists between this binding activity and the anti-platelet activity (TXA2 antagonizing test).
An inhibitory activity (binding activity) of the test compound was calculated by the following equation. [formula]
Amount of the total binding is an amount of ^3 H-U46619-bound radioactivity in the absence of a test compound.
The amount of non-specific binding is used to mean an amount of ^3 H-U46619-bound radioactivity in the presence of 10 μM U-46619.
The amount bound in the presence of a test compound is an amount of ^3 H-U46619-bound radioactivity in the presence of a test compound in various concentrations.

[3] = test compound 1 μM, 12 nM 3H-U46619, washed guinea pig platelets, 37° C., 20 minutes

Structure (SMILES)	minimal effective concentration [1]	minimal effective dose [2]	Acute Toxicity (MLD), minimum lethal dose (mice; ip)	Acute Toxicity (MLD), minimum lethal dose (mice; po)	inhibition at 1 µM (histamine H1 receptor)	inhibition at 1 µM (TXA2 receptor; [3])	inhibitory activity (TXA2 receptor binding), in words (TXA2 receptor)	inhibition at 1 µM (TXA2 receptor)
O=C(O)c1ccc2c(c1)C(SCCN1CCN(c3ccccc3)CC1)c1ccccc1CO2 (stereo not drawn) [Compound 1b, 11-[2-(4-Phenyl-1-piperazinyl)ethyl]thio-6,11-dihydrodibenz[b,e]oxepin-2-carboxylic acid]	3 µg/mL	10 mg/kg	> 100 mg/kg	> 300 mg/kg	68%			
O=C(O)c1ccc2c(c1)C(SCCN1CCN(c3ccc(F)cc3)CC1)c1ccccc1CO2 (stereo not drawn) [Compound 8b]	1 µg/mL	10 mg/kg	> 100 mg/kg	> 300 mg/kg				
COc1ccccc1N1CCN(CCSC2c3ccccc3COc3ccc(C(=O)O)cc32)CC1 (stereo not drawn) [Compound 9b]	1 µg/mL	10 mg/kg	> 100 mg/kg	> 300 mg/kg				
O=C(O)c1ccc2c(c1)C(SCCN1CCC(c3ccccc3)CC1)c1ccccc1CO2 (stereo not drawn) [Compound 37b, 11-[2-(4-Phenyl-1-piperidinyl)ethyl]thio-6,11-dihydrodibenz[b,e]oxepin-2-carboxylic acid]	10 µg/mL	1 mg/kg	> 100 mg/kg	> 300 mg/kg				
O=C(O)c1ccc2c(c1)C(SCCN1CCC(Cc3ccccc3)CC1)c1ccccc1CO2 (stereo not drawn) [Compound 38b]	1 µg/mL	1 mg/kg			92%	81%		
CN(C)CCSC1c2ccccc2COc2ccc(C(=O)O)cc21 (stereo not drawn) [Compound (A), reference compound]					88%	-4%	not observed	
CN(C)CCC=C1c2ccccc2COc2ccc(CC(=O)O)cc21 [Compound (B), reference compound]						1%	not observed	
O=C(O)c1ccc2c(c1)/C(=C/CN1CCN(c3ccc(F)cc3)CC1)c1ccccc1CO2 [Compound E-73b, (E)-11-[2-[4-(4-Fluorophenyl)-1-piperazinyl]ethylidene]-6,11-dihydrodibenz[b,e]oxepin-2-carboxylic acid.isopropanol. monohydrate]	10 µg/mL	> 100 mg/kg	> 100 mg/kg	> 300 mg/kg		85%		
O=C(O)c1ccc2c(c1)/C(=C/CN1CCN(S(=O)(=O)C=Cc3ccccc3)CC1)c1ccccc1CO2 [Compound E-78b, (E)-11-[2-[4-(Styrylsulfonyl)-1-piperazinyl]ethylidene]-6,11-dihydrodibenz[b,e]oxepin-2-carboxylic acid-0.1 iso-propanol.0.1 hydrate]	3 µg/mL	> 100 mg/kg	> 100 mg/kg	> 300 mg/kg		83%		
O=C(O)c1ccc2c(c1)/C(=C/CN1CCN(S(=O)(=O)c3cccs3)CC1)c1ccccc1CO2 [Compound E-79b, (E)-11-[2-[4-(2-Thienylsulfonyl)-1-piperazinyl]ethylidene]-6,11-dihydrodibenz[b,e]oxepin-2-carboxylic acid.0.5 hydrate]	30 µg/mL	> 100 mg/kg	> 100 mg/kg	> 300 mg/kg		77%		
O=C(O)c1ccc2c(c1)/C(=C/CN1CCN(CC=Cc3ccccc3)CC1)c1ccccc1CO2 [E-75b', (E)-11-[3-(4-Cinnamyl-1-piperazinyl)ethylidene]-6,11-dihydrodibenz[b,e]oxepin-2-carboxylic acid.difumarate-0.5 hydrate]	0.1 µg/mL	100 mg/kg	> 100 mg/kg	> 300 mg/kg		85%		
CN1CCC(=C2c3ccccc3CC(=O)c3sccc32)CC1 [Ketotifen, reference compound]							not observed	-3%
